Laboratory results from patent US7772241B2, “Variolin derivatives and their use as antitumor agents” (Pharma Mar S.A., priority 2001, dated 2010).

Columns and labels:
SK-MEL-28 = test: Inhibition of cells growth by colorimetric (SRB) assay, SK-MEL-28; conditions: for GI50 / CC50: Homo sapiens, SK-MEL-28, 48 h; for GI50: read-out: GI50 MEL-28, SRB assay, 48 hours exposure; for CC50: read-out: LC50 MEL-28, SRB assay, 48 hours exposure; for TGI MEL-28: SRB assay, 48 hours exposure
Method in brief: (§1)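 Human tumour cells in RPMI 1640 with 10% FBS were seeded at 5×10^3 cells/well, allowed to attach for 18 h, then exposed to samples at 10 to 10^−8 μg/ml for 48 h. Growth was measured by SRB staining after TCA fixation, with absorbance read at 490 nm in triplicate wells.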

SK-OV-3 = test: Inhibition of cells growth by colorimetric (SRB) assay, SK-OV-3; conditions: for GI50 / CC50: Homo sapiens, SK-OV-3, 48 h; for GI50: read-out: GI50 SKOV-3, SRB assay, 48 hours exposure; for CC50: read-out: LC50 SKOV-3, SRB assay, 48 hours exposure; for TGI SKOV-3: SRB assay, 48 hours exposure
Method in brief: as §1

[1] = Inhibition of cells growth by colorimetric (SRB) assay, HMEC1; conditions: human, HMEC1 cells, LC50 H-MEC-1, SRB assay, 48 hours exposure
HMEC1 = test: as above; conditions: for GI50: Homo sapiens, HMEC-1, 48 h, read-out: GI50 H-MEC-1, SRB assay, 48 hours exposure; for TGI H-MEC-1: SRB assay, 48 hours exposure, in M (unit assumed)
IGROV-1 = test: Inhibition of cells growth by colorimetric (SRB) assay, IGROV-1; conditions: for GI50 / CC50: Homo sapiens, IGROV-1, 48 h; for GI50: read-out: GI50 IGROV, SRB assay, 48 hours exposure; for CC50: read-out: LC50 IGROV, SRB assay, 48 hours exposure; for TGI IGROV: SRB assay, 48 hours exposure
Method in brief: as §1

SK-BR-3 = test: Inhibition of cells growth by colorimetric (SRB) assay, SK-BR-3; conditions: for GI50 / CC50: Homo sapiens, SK-BR-3, 48 h; for GI50: read-out: GI50 SK-BR-3, SRB assay, 48 hours exposure; for CC50: read-out: LC50 SK-BR-3, SRB assay, 48 hours exposure; for TGI SK-BR-3: SRB assay, 48 hours exposure
Method in brief: as §1

K-562 = test: Inhibition of cells growth by colorimetric (SRB) assay, K-562; conditions: for GI50 / CC50: Homo sapiens, K562, 48 h; for GI50: read-out: GI50 K-562, SRB assay, 48 hours exposure; for CC50: read-out: LC50 K-562, SRB assay, 48 hours exposure; for TGI K-562: SRB assay, 48 hours exposure
Method in brief: as §1

LNCaP = test: Inhibition of cells growth by colorimetric (SRB) assay, LNCaP; conditions: for GI50 / CC50: Homo sapiens, LNCaP, 48 h; for GI50: read-out: GI50 LN-caP, SRB assay, 48 hours exposure; for CC50: read-out: LC50 LN-caP, SRB assay, 48 hours exposure; for TGI LN-caP: SRB assay, 48 hours exposure
Method in brief: as §1

DU-145 = test: Inhibition of cells growth by colorimetric (SRB) assay, DU-145; conditions: for GI50 / CC50: Homo sapiens, DU-145, 48 h; for GI50: read-out: GI50 DU-145, SRB assay, 48 hours exposure; for CC50: read-out: LC50 DU-145, SRB assay, 48 hours exposure; for TGI DU-145: SRB assay, 48 hours exposure
Method in brief: as §1

PANC-1 = test: Inhibition of cells growth by colorimetric (SRB) assay, PANC-1; conditions: for GI50: read-out: GI50 PANC-1, SRB assay, 48 hours exposure
Method in brief: as §1

IGROV-ET = test: Inhibition of cells growth by colorimetric (SRB) assay, IGROV-ET; conditions: for GI50 / CC50: Homo sapiens, 48 h; for GI50: read-out: GI50 IGROV-ET, SRB assay, 48 hours exposure; for CC50: read-out: LC50 IGROV-ET, SRB assay, 48 hours exposure; for TGI IGROV-ET: SRB assay, 48 hours exposure
Method in brief: as §1

A-549 = test: Inhibition of cells growth by colorimetric (SRB) assay, A-549; conditions: for GI50 / CC50: Homo sapiens, A549, 48 h; for GI50: read-out: GI50 A-549, SRB assay, 48 hours exposure; for CC50: read-out: LC50 A-549, SRB assay, 48 hours exposure; for TGI A-549: SRB assay, 48 hours exposure
Method in brief: as §1

LoVo = test: Inhibition of cells growth by colorimetric (SRB) assay, LoVo
Method in brief: as §1

LoVo-Dox = test: Inhibition of cells growth by colorimetric (SRB) assay, LoVo-Dox
Method in brief: as §1

HT-29 = test: Inhibition of cells growth by colorimetric (SRB) assay, HT-29
Method in brief: as §1

Row | SMILES | GI50 (SK-MEL-28) | CC50 (SK-MEL-28) | TGI MEL-28 (SK-MEL-28) | CC50 at 48 h [1] | GI50 (HMEC1) | TGI H-MEC-1 (HMEC1) | GI50 (IGROV-1) | CC50 (IGROV-1) | TGI IGROV (IGROV-1) | GI50 (SK-BR-3) | CC50 (SK-BR-3) | TGI SK-BR-3 (SK-BR-3) | GI50 (K-562) | CC50 (K-562) | TGI K-562 (K-562) | GI50 (LNCaP) | CC50 (LNCaP) | TGI LN-caP (LNCaP) | GI50 (DU-145) | CC50 (DU-145) | further results
1 | COc1ccc(CNc2ccnc3c2c(-c2ccnc([S+](C)[O-])n2)c2ccnc(NCc4ccc(OC)cc4)n23)cc1 (centres unmarked) [Compound 86] | ≥ 17.3 µM | ≥ 17.3 µM | 1.73E−05 | ≥ 17.3 µM | 7.99 µM | 1.73E−05 | ≥ 17.3 µM | ≥ 17.3 µM | 1.73E−05 | ≥ 17.3 µM | ≥ 17.3 µM | 1.73E−05 | ≥ 17.3 µM | ≥ 17.3 µM | 1.73E−05 | ≥ 17.3 µM | ≥ 17.3 µM | 1.73E−05 | ≥ 17.3 µM | ≥ 17.3 µM | GI50 (SK-OV-3): ≥ 17.3 µM; CC50 (SK-OV-3): ≥ 17.3 µM; TGI SKOV-3 (SK-OV-3): 1.73E−05; TGI DU-145 (DU-145): 1.73E−05; GI50 (PANC-1; Homo sapiens, PANC-1, 48 h): ≥ 17.3 µM; GI50 (IGROV-ET): ≥ 17.3 µM; CC50 (IGROV-ET): ≥ 17.3 µM; TGI IGROV-ET (IGROV-ET): 1.73E−05; GI50 (A-549): ≥ 17.3 µM; CC50 (A-549): ≥ 17.3 µM; TGI A-549 (A-549): 1.73E−05
2 | COc1ccc(CNc2ccnc3c2c(-c2ccnc(OC)n2)c2ccnc(NCc4ccc(OC)cc4)n23)cc1 [Compound 87] | 17.3 µM | 17.3 µM | 1.73E−05 | 17.3 µM | 7.3 µM | 1.73E−05 | 17.3 µM | 17.3 µM | 1.73E−05 | 17.3 µM | 17.3 µM | 1.73E−05 | 17.3 µM | 17.3 µM | 1.73E−05 | 17.3 µM | 17.3 µM | 1.73E−05 | 18.3 µM | 17.3 µM | GI50 (SK-OV-3): 17.3 µM; CC50 (SK-OV-3): 17.3 µM; TGI SKOV-3 (SK-OV-3): 1.73E−05; TGI DU-145 (DU-145): 1.73E−05; GI50 (PANC-1; Homo sapiens, PANC-1, 48 h): 17.3 µM; GI50 (IGROV-ET): 17.3 µM; CC50 (IGROV-ET): 17.3 µM; TGI IGROV-ET (IGROV-ET): 1.73E−05; GI50 (A-549): 17.3 µM; CC50 (A-549): 17.3 µM; TGI A-549 (A-549): 1.73E−05
3 | COc1nccc(-c2c3c(N)ccnc3n3c(N)nccc23)n1 [Compound 88] | 1.43 µM | 11.2 µM | 4.17E−06 | 18.7 µM | 0.99 µM | 9.71E−06 | 3.23 µM | 18.7 µM | 9.58E−06 | 0.562 µM | 18.7 µM | 1.36E−06 | 6.09 µM | 18.7 µM | 1.87E−05 | 0.415 µM | 1.59 µM | 8.13E−07 | 0.902 µM | 18.7 µM | GI50 (LoVo; Homo sapiens, LoVo, 48 h, read-out: GI50 LOVO, SRB assay, 48 hours exposure): 1.34 µM; CC50 (LoVo; Homo sapiens, LoVo, 48 h, read-out: LC50 LOVO, SRB assay, 48 hours exposure): 12.9 µM; TGI LOVO (LoVo; SRB assay, 48 hours exposure): 4.37E−06; GI50 (LoVo-Dox; Homo sapiens, 48 h, read-out: GI50 LOVO-DOX, SRB assay, 48 hours exposure): 1.06 µM; CC50 (LoVo-Dox; Homo sapiens, 48 h, read-out: LC50 LOVO-DOX, SRB assay, 48 hours exposure): 15.1 µM; TGI LOVO-DOX (LoVo-Dox; SRB assay, 48 hours exposure): 3.87E−06; TGI DU-145 (DU-145): 1.87E−05; GI50 (PANC-1; Homo sapiens, PANC-1, 48 h): 5.85 µM; CC50 (PANC-1; Homo sapiens, PANC-1, 48 h, read-out: LC50 PANC-1, SRB assay, 48 hours exposure): 18.7 µM; TGI PANC-1 (PANC-1; SRB assay, 48 hours exposure): 1.87E−05; GI50 (HT-29; Homo sapiens, HT-29, 48 h, read-out: GI50 HT-29, SRB assay, 48 hours exposure): 1.03 µM; CC50 (HT-29; Homo sapiens, HT-29, 48 h, read-out: LC50 HT-29, SRB assay, 48 hours exposure): 18.7 µM; TGI HT-29 (HT-29; SRB assay, 48 hours exposure): 1.87E−05; GI50 (IGROV-ET): 1.4 µM; CC50 (IGROV-ET): 18.7 µM; TGI IGROV-ET (IGROV-ET): 6.74E−06; GI50 (A-549): 1.03 µM; CC50 (A-549): 18.7 µM; TGI A-549 (A-549): 6.95E−06
